Data on one compound can be found in patent publication US12144792B2, “Therapeutic agents for neurodegenerative diseases” (priority 2016, dated 2024).

The test system of experiment [1] is patients with progressive supranuclear palsy. In words: Case studies, clinical examination. The conditions noted are these: 3 then 5 g per day; for gait and hypokinetic rigid syndrome: 17 days. The class given is in vivo, human. Here is the method: After 27 days of acetyl-leucine treatment, medication was stopped and the patient was re-examined 60 days later. […] Gait analysis was performed before treatment commenced. After 17 days of treatment, medication was stopped and the patient was re-examined 4 days later. […] Gait analysis was performed before treatment commenced. After three weeks of treatment, medication was stopped and the patient was re-examined.

The test system of experiment [2] is Mucopolysaccharidosis Type VII (MPS VII) patient fibroblasts. In words: Lysosomal volume via LysoTracker. The class given is cell-based, human. Particulars: 1 mM, 6 days, vs untreated.
The subject of experiment [3] is Npc1^−/− mice. In words: Weight data. The class given is in vivo, mouse. Particulars: 0.1 g/kg from weaning, vs untreated group. The text has this: Separate groups of Npc1^−/− and Npc1^+/+ mice were left untreated, as controls. Animals were weighed twice a week. Weights were averaged (mean) across all mice in each group and compared.
In experiment [4] the test system is patients with Tay-Sachs disease. The experiment can be described thus: Case studies, patient evaluation (SARA, SCAFI, MoCA, mRDS, EQ-5D-5L). The class given is in vivo, human. The text has this:
For example, to evaluate overall neurological status, mDRS, a four-domain scale (ambulation, manipulation, language and swallowing), may be applied. Cerebellar function may be evaluated using SARA, an eight-item clinical rating scale (gait, stance, sitting, speech, fine motor function and taxis; range 0-40, where 0 is the best neurological status and 40 the worst), and SCAFI, comprising the 8-m-Walking-Time (8MW; performed by having patients walking twice as quickly as possible from one line to another excluding turning), 9-Hole-Peg-Test (9HPT) and the number of “PATA” repetitions over 10 s. Subjective impairment and quality of life may be evaluated using the EQ-5D-5L questionnaire and VAS. To assess ocular motor function, 3-dimensional videooculography (EyeSeeCam) may be used to measure the peak velocity of saccades, gain of smooth pursuit, peak slow phase velocity of gaze-evoked nystagmus (gaze-holding function), peak slow phase velocity of optokinetic nystagmus, and gain of horizontal vestibulo-ocular reflex. To evaluate the cognitive state, WAIS-R or WISC-W, and MoCA, assessing different cognitive domains, including attention and concentration, executive functions, memory, language, visuoconstructional skills, conceptual thinking, calculations, and orientation with a maximum of 30 points and a cut-off score of 26, may be used. The skilled person will know how to perform these and other such tests.
Before treatment was commenced, examination of the patient indicated a Scale for Assessment and Rating of Ataxia (SARA) score of 15.5/40. In addition, results from the patient's Spinocerebellar Ataxia Functional Index (SCAFI) analysis were: • Mean 8-meters Walking Test (8MW): 21.6 s • MW 9-Hole Pegboard Test Dominant (9HPTD) (right): 48.3 s • MW 9-Hole Pegboard Test Non-Dominant (9HPTND): 44.9 s • MW PATA Word Test: 20 • Montreal Cognitive Assessment (MoCA): 18/30
The day following this examination, the patient was started on therapy with acetyl-leucine, at a dose of 3 g per day for the first week, followed by a dose of 5 g per day for the second week onwards.
The day of the examination, the patient was started on therapy with acetyl-leucine at a dose of 3 g per day for the first week, followed by a dose of 5 g per day for the second week onwards.
The patient was started on therapy with acetyl-leucine at a dose of 1.5 g per day for the first week, followed by a dose of 3 g per day for the second week onwards.

Experiment [5] deals with Sandhoff disease patient fibroblasts. In words: Glycosphingolipid (GSL) levels via HPLC. The conditions noted are these: 1 mM for 6 days. The class given is cell-based, human.
The subject of experiment [6] is Npc1^−/− mice. The experiment can be described thus: Motor function analysis (Open Field Activity Monitor). It counts as in vivo, mouse. The conditions noted are these: 0.1 g/kg from weaning, nine weeks of age, vs untreated littermates. Here is the method: Separate groups of Npc1^−/− and Npc1^+/+ mice were left untreated, as controls. Motor function analysis was performed on mice at eight and nine weeks of age using an Open Field Activity Monitor according to manufacturer's instructions (Linton Instruments, Amlogger Software). Each mouse was placed in a plastic cage with bedding and analysed for five minutes. Rears were counted manually. Motor function parameters measured were: • 1. Centre Rearing: mice rearing on hind legs unsupported; • 2. Rearing: mice rearing on hind legs with and without the support of cage walls; • 3. Activity: regular movement of the animal including walks; • 4. Front to Back (FR) count: movement of the animal from front to back of the cage; • 5. Active Time: duration (s/min) of activeness regardless of movement; • 6. Mobile Time: duration (s/min) of mobility; • 7. Rearing Time: duration of any rearing.

For experiment [7], the system named is fibroblast cell line from an NPC patient. The experiment can be described thus: Lysosomal volume via LysoTracker. It counts as cell-based, human. Particulars: fibroblasts from NPC patient of mild clinical severity; 1 mM. As to the method: A fibroblast cell line from an NPC patient was treated for 3 days with N-acetyl-DL-leucine (1 mM) and relative lysosomal volume was quantified via LysoTracker, a fluorescent dye that accumulates in acidic organelles. Increased LysoTracker fluorescence is indicative of an increase in lysosomal size and/or number, and is a hallmark of NPC cells.

The subject of experiment [8] is patient with downbeat nystagmus. The experiment can be described thus: Gait analysis. It counts as in vivo, human. Particulars: Ex. 12 Patient 2. The text has this:
Medication was then suspended. About one month after stopping acetyl-DL-leucine treatment, the patient's symptomatology worsened.

Experiment [9] deals with amyloid precursor protein C-terminal fragments (APP-CTFs). In words: APP-CTF levels relative to total APP in the cerebellum. Particulars: NPC1−/− mice, 0.1 g/kg body weight daily from 3 weeks of age; sacrificed at 8 weeks. The class given is in vivo, mouse. Here is the method: The Niemann-Pick Disease Type C (NPC) mouse model shares a number of pathological features with Alzheimer's disease (AD) as described herein. […] Mice were sacrificed at 8 weeks of age. Levels of amyloid precursor protein C-terminal fragments (APP-CTFs) were evaluated relative to total amyloid precursor protein (APP) levels in the cerebellum for wild type, untreated wild type NPC1^−/− mice, and AL-treated wild type NPC1^−/− mice. Levels of microtubule-associated protein 1A/1B-light chain 3-phosphatidylethanolamine conjugate (LC3-II) were also evaluated relative to levels of tubulin loading control for wild type, untreated wild type NPC1^−/− mice, and AL-treated wild type NPC1^−/− mice.

With `CC(=O)NC(CC(C)C)C(=O)O` (racemic) [acetyl-DL-leucine], the dizziness and gait result in experiment [1] (Ex. 11 Patient 1, PSP, 27 days) was “significant reduction of dizziness and slight improvement of gait”. For the same compound, the “gait and hypokinetic rigid syndrome” value in experiment [1] (Ex. 11 Patient 2, PSP) is listed as “no significant improvement of gait or hypokinetic rigid syndrome”; in [1] (Ex. 11 Patient 3, PSP) it was “no significant improvement of gait or hypokinetic rigid syndrome”. The gait and falls entry in [1] (Ex. 11 Patient 4, PSP, after three weeks) is “gait with increased subjective security and with reduced frequency of falls”. Also, the “LysoTracker fluorescence (lysosomal volume)” value in experiment [2] is reported as “trend in reducing LysoTracker fluorescence”; in experiment [7] it was “significant decrease in LysoTracker fluorescence”. Moreover, the “delay of weight loss symptoms” value with Npc1^−/− mice [3] is “delayed these weight loss symptoms by two weeks”. Also, the symptoms on re-examination entry was “stable condition with slightly improved cognitive function but had deterioration of stance, gait and fine motor function” in [4] (Ex. 5 Patient 1, Tay-Sachs, 3 then 5 g per day, after four months); “improved fine motor skills and reduced hand tremor” in experiment [4] (Ex. 5 Patient 1, Tay-Sachs, 3 then 5 g per day, after one month); “increased enunciation, improved postural stability, and enhanced cognitive function” in [4] (Ex. 5 Patient 2, Tay-Sachs, 3 then 5 g per day, after one month); “improved postural stability, gait and stance, and could speak single words” in [4] (Ex. 5 Patient 3, Tay-Sachs, 1.5 then 3 g per day, after one month). Moreover, in [5], the GSL levels entry is given as “trend towards decreased GSL levels”. The motor function properties result in the experiment on Npc1^−/− mice [6] is on record as “significantly improved motor function”. For the same compound, the self-chosen velocity in experiment [8] (about one month after stopping treatment, decrease from 85) was determined as 72 cm/s; in experiment [8] (on treatment, increase from 56), 85 cm/s. In [9], the “APP-CTF levels relative to total APP in the cerebellum” value is “lowering of APP-CTFs”.
